Results: patent publication US12306535B2, “Photoacid generator for chemically amplified photoresists for deep ultra violet and extreme ultraviolet lithography” (International Business Machines Corporation, priority 2022, dated 2025)

Experiment: Acid-dissociation constant relative to tris(trifluoromethylsulfonyl)methane
Assay type: physicochemical
Conditions: compared with tris(trifluoromethylsulfonyl)methane

Compound | acid-dissociation constant of acids generated upon UV exposure
N#Cc1[b-]2c(C#N)c(C#N)c(C#N)c(C#N)c2c(C#N)c(C#N)c1C#N.c1ccc([S+](c2ccccc2)c2ccccc2)cc1 [17B, triphenylsulfonium 1,2,3,4,5,6,7,8-octacyanobenzo[a]borinine] | higher than that of tris(trifluoromethylsulfonyl)methane
phenylthiolanium bis(1,2,2-tricyanoethen-1-yl)-(1,1,2,4,5,5-hexacyanopent-1,4-dien-3-yl)borane [17E] | higher than that of tris(trifluoromethylsulfonyl)methane
N#Cc1[b-]2c(C#N)c(C#N)c(C#N)c(C#N)c2c(C#N)c(C#N)c1C#N.c1ccc([S+]2CCCC2)cc1 [17F, phenylthiolanium 1,2,3,4,5,6,7,8-octacyanobenzo[a]borinine] | higher than that of tris(trifluoromethylsulfonyl)methane
diphenyliodonium bis(1,2,2-tricyanoethen-1-yl)-(1,1,2,4,5,5-hexacyanopent-1,4-dien-3-yl)borane [17C] | higher than that of tris(trifluoromethylsulfonyl)methane
triphenylsulfonium bis(1,2,2-tricyanoethen-1-yl)-(1,1,2,4,5,5-hexacyanopent-1,4-dien-3-yl)borane [17A] | higher than that of tris(trifluoromethylsulfonyl)methane
N#Cc1[b-]2c(C#N)c(C#N)c(C#N)c(C#N)c2c(C#N)c(C#N)c1C#N.c1ccc([I+]c2ccccc2)cc1 [17D, diphenyliodonium 1,2,3,4,5,6,7,8-octacyanobenzo[a]borinine] | higher than that of tris(trifluoromethylsulfonyl)methane

Experiment: not given
Conditions: relative to triphenylantimony and triphenylbismuth; cited from earlier work

Compound | mean lethal dose LD50
triphenyltin | one to two orders of magnitude lower

Experiment: not given
Conditions: smaller than that of tris(trifluoromethylsulfonyl)methane; cited from earlier work

Compound | acid-dissociation constant
CC1(C)C2CCC1(CS(=O)(=O)O)C(=O)C2 (stereo not drawn) [camphorsulfonic anions] | about 18 orders of magnitude
p-toluenesulfonate [p-toluenesulfonate anions] | about 18 orders of magnitude
